Columns and labels:
Experiment in all cases: RBC kinase panel
Assay type in all cases: biochemical
Conditions in all cases: ATP 10 μM, Data1, Data2
[1] = molecular target: T1, CLK3 (Homo sapiens, UniProt P49761)
T1 construct: purchased Reaction Biology Corporation
Summary of the method: (§1)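 Duplicate determinations were made for each of 369 human kinases exposed to 1 μM compound, with reactions run at 10 μM ATP.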

[2] = molecular target: T2, IRAK1 (Homo sapiens, UniProt P51617)
T2 construct: purchased Reaction Biology Corporation
Summary of the method: as §1

[3] = molecular target: T3, TLK2 (Homo sapiens, UniProt Q86UE8)
T3 construct: purchased Reaction Biology Corporation
Summary of the method: as §1

[4] = molecular target: T4, ABL1 (Homo sapiens, UniProt P00519)
T4 construct: purchased Reaction Biology Corporation
Summary of the method: as §1

[5] = molecular target: T5, SSTK/TSSK6 (Homo sapiens, UniProt Q9BXA6)
T5 construct: purchased Reaction Biology Corporation
Summary of the method: as §1

[6] = molecular target: T6, FES/FPS (Homo sapiens, UniProt P07332)
T6 construct: purchased Reaction Biology Corporation
Summary of the method: as §1

[7] = molecular target: T7, IKKb/IKBKB (Homo sapiens, UniProt O14920)
T7 construct: purchased Reaction Biology Corporation
Summary of the method: as §1

[8] = molecular target: T8, ASK1/MAP3K5 (Homo sapiens, UniProt Q99683)
T8 construct: purchased Reaction Biology Corporation
Summary of the method: as §1

[9] = molecular target: T9, CAMK2g (Homo sapiens, UniProt Q13555)
T9 construct: purchased Reaction Biology Corporation
Summary of the method: as §1

[10] = molecular target: T10, TYK2 (Homo sapiens, UniProt P29597)
T10 construct: purchased Reaction Biology Corporation
Summary of the method: as §1

[11] = molecular target: T11, CDK19/cyclin C (Homo sapiens, UniProt Q9BWU1)
T11 construct: purchased Reaction Biology Corporation
Summary of the method: as §1

[12] = molecular target: T12, JNK2 (Homo sapiens, UniProt P45984)
T12 construct: purchased Reaction Biology Corporation
Summary of the method: as §1

[13] = molecular target: T13, ALK5/TGFBR1 (Homo sapiens, UniProt P36897)
T13 construct: purchased Reaction Biology Corporation
Summary of the method: as §1

[14] = molecular target: T14, MST3/STK24 (Homo sapiens, UniProt Q9Y6E0)
T14 construct: purchased Reaction Biology Corporation
Summary of the method: as §1

[15] = molecular target: T15, CK2a2 (Homo sapiens, UniProt P19784)
T15 construct: purchased Reaction Biology Corporation
Summary of the method: as §1

[16] = molecular target: T16, SLK/STK2 (Homo sapiens, UniProt Q9H2G2)
T16 construct: purchased Reaction Biology Corporation
Summary of the method: as §1

[17] = molecular target: T17, PLK1 (Homo sapiens, UniProt P53350)
T17 construct: purchased Reaction Biology Corporation
Summary of the method: as §1

[18] = molecular target: T18, FGFR3 (Homo sapiens, UniProt P22607)
T18 construct: purchased Reaction Biology Corporation
Summary of the method: as §1

[19] = molecular target: T19, MLCK/MYLK (Homo sapiens, UniProt Q15746)
T19 construct: purchased Reaction Biology Corporation
Summary of the method: as §1

[20] = molecular target: T20, CAMK2a (Homo sapiens, UniProt Q9UQM7)
T20 construct: purchased Reaction Biology Corporation
Summary of the method: as §1

[21] = molecular target: T21, p70S6K/RPS6KB1 (Homo sapiens, UniProt P23443)
T21 construct: purchased Reaction Biology Corporation
Summary of the method: as §1

[22] = molecular target: T22, PKCnu/PRKD3 (Homo sapiens, UniProt O94806)
T22 construct: purchased Reaction Biology Corporation
Summary of the method: as §1

[23] = molecular target: T23, CAMK1b (Homo sapiens, UniProt Q6P2M8)
T23 construct: purchased Reaction Biology Corporation
Summary of the method: as §1

[24] = molecular target: T24, BRSK1 (Homo sapiens, UniProt Q8TDC3)
T24 construct: purchased Reaction Biology Corporation
Summary of the method: as §1

[25] = molecular target: T25, EPHA2 (Homo sapiens, UniProt P29317)
T25 construct: purchased Reaction Biology Corporation
Summary of the method: as §1

[26] = molecular target: T26, ITK (Homo sapiens, UniProt Q08881)
T26 construct: purchased Reaction Biology Corporation
Summary of the method: as §1

[27] = molecular target: T27, IRR/INSRR (Homo sapiens, UniProt P14616)
T27 construct: purchased Reaction Biology Corporation
Summary of the method: as §1

[28] = molecular target: T28, DAPK2 (Homo sapiens, UniProt Q9UIK4)
T28 construct: purchased Reaction Biology Corporation
Summary of the method: as §1

[29] = molecular target: T29, ALK4/ACVR1B (Homo sapiens, UniProt P36896)
T29 construct: purchased Reaction Biology Corporation
Summary of the method: as §1

[30] = molecular target: T30, CAMK2d (Homo sapiens, UniProt Q13557)
T30 construct: purchased Reaction Biology Corporation
Summary of the method: as §1

[31] = molecular target: T31, GRK2 (Homo sapiens, UniProt P25098)
T31 construct: purchased Reaction Biology Corporation
Summary of the method: as §1

[32] = molecular target: T32, COT1/MAP3K8 (Homo sapiens, UniProt P41279)
T32 construct: purchased Reaction Biology Corporation
Summary of the method: as §1

[33] = molecular target: T33, PKA (Homo sapiens, UniProt P17612)
T33 construct: purchased Reaction Biology Corporation
Summary of the method: as §1

T29 sequence (P36896 24-505): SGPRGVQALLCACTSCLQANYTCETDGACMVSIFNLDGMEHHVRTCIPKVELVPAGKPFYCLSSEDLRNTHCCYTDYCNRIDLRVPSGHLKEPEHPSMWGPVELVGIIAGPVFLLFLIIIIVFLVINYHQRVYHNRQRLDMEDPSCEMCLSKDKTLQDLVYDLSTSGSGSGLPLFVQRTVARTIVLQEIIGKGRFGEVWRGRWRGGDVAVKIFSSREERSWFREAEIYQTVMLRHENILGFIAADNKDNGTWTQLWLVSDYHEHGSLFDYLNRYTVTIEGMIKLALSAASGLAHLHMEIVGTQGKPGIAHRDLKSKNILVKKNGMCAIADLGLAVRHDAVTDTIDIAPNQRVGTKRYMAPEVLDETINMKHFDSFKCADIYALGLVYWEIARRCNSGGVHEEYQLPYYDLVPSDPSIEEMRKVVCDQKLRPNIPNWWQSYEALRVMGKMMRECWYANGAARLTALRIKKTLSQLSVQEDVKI
T13 sequence (P36897 34-503): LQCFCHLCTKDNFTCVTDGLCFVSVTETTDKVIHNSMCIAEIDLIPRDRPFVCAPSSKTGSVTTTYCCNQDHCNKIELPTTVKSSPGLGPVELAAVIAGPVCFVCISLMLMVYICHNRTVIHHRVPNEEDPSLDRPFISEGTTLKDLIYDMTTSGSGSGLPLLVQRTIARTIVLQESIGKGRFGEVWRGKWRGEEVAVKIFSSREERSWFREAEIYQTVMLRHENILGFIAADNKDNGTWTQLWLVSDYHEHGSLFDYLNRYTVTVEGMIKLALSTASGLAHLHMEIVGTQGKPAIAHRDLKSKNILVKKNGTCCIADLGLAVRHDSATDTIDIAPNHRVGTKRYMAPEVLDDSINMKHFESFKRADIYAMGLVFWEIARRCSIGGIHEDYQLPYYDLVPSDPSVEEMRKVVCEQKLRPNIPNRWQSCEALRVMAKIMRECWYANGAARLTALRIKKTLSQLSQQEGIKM
T8 sequence (Q99683 whole entry): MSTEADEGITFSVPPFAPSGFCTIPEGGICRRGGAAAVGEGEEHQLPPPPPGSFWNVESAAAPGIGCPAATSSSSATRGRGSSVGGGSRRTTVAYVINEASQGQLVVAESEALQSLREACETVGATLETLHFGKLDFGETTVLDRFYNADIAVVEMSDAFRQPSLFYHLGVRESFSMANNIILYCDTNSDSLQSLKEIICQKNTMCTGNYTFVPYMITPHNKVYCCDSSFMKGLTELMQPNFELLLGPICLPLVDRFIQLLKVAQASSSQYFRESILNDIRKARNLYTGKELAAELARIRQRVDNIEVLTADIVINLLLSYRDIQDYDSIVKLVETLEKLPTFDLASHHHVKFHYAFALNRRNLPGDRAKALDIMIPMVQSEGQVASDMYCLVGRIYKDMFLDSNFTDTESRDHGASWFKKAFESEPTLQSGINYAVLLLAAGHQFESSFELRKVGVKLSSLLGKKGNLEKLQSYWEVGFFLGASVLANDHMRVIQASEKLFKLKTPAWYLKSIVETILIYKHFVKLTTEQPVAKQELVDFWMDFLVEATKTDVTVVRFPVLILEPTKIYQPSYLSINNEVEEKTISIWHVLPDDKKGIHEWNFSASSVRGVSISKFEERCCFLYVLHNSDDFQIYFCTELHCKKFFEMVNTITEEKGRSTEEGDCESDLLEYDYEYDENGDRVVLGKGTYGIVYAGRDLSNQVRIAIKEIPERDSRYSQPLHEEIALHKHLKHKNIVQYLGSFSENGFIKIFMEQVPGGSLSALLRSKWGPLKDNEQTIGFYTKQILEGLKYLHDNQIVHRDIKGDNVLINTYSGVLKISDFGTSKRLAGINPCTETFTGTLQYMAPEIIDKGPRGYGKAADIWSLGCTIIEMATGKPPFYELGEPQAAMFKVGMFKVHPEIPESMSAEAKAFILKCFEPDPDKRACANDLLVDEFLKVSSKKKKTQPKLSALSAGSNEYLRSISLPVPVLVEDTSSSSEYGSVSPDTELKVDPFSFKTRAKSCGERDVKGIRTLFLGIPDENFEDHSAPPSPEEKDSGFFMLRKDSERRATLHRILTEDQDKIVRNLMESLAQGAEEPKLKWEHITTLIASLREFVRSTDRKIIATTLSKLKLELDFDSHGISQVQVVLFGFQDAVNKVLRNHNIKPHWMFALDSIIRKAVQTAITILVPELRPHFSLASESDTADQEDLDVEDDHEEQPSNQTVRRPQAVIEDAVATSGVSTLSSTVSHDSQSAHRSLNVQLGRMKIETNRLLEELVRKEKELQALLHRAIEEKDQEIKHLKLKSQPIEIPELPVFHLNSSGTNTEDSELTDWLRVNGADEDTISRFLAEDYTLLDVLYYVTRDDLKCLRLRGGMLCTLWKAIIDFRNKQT
T9 sequence (Q13555 whole entry): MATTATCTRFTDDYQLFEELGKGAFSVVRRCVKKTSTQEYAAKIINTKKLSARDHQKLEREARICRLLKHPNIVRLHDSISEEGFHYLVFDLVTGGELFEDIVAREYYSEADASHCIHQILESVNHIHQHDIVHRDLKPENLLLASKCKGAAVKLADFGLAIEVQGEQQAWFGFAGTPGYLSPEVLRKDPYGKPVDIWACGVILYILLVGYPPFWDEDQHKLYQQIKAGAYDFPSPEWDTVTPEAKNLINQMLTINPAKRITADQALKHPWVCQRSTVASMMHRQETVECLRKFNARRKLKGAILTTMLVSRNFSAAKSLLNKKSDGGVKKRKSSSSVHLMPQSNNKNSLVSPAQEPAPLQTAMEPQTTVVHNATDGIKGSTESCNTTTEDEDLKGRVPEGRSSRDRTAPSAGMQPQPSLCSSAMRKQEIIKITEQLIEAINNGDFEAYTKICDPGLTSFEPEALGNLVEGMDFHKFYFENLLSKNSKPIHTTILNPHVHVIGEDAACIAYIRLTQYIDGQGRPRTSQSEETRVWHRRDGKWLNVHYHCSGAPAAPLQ
T20 sequence (Q9UQM7 whole entry): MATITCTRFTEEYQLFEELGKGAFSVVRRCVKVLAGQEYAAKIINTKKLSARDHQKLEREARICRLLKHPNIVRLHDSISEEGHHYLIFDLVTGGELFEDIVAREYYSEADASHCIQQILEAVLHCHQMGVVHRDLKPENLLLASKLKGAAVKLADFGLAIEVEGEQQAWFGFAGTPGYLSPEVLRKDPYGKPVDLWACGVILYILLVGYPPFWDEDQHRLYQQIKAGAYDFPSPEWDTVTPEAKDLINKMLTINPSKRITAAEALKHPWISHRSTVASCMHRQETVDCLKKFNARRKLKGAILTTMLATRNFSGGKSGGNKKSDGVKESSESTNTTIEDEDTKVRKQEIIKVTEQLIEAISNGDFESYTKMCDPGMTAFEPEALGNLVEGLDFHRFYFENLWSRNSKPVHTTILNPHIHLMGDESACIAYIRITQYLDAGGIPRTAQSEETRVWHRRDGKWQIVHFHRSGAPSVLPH
T28 sequence (Q9UIK4 whole entry): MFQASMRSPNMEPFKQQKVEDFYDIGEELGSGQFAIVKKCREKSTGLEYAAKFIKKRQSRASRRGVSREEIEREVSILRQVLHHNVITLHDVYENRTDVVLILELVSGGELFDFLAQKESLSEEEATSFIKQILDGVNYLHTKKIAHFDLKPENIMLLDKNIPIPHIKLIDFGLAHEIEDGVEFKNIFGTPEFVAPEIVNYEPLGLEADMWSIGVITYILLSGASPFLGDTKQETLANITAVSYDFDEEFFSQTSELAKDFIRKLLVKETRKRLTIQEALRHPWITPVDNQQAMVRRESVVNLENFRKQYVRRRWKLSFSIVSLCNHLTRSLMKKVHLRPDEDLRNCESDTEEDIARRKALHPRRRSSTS
T16 sequence (Q9H2G2 whole entry): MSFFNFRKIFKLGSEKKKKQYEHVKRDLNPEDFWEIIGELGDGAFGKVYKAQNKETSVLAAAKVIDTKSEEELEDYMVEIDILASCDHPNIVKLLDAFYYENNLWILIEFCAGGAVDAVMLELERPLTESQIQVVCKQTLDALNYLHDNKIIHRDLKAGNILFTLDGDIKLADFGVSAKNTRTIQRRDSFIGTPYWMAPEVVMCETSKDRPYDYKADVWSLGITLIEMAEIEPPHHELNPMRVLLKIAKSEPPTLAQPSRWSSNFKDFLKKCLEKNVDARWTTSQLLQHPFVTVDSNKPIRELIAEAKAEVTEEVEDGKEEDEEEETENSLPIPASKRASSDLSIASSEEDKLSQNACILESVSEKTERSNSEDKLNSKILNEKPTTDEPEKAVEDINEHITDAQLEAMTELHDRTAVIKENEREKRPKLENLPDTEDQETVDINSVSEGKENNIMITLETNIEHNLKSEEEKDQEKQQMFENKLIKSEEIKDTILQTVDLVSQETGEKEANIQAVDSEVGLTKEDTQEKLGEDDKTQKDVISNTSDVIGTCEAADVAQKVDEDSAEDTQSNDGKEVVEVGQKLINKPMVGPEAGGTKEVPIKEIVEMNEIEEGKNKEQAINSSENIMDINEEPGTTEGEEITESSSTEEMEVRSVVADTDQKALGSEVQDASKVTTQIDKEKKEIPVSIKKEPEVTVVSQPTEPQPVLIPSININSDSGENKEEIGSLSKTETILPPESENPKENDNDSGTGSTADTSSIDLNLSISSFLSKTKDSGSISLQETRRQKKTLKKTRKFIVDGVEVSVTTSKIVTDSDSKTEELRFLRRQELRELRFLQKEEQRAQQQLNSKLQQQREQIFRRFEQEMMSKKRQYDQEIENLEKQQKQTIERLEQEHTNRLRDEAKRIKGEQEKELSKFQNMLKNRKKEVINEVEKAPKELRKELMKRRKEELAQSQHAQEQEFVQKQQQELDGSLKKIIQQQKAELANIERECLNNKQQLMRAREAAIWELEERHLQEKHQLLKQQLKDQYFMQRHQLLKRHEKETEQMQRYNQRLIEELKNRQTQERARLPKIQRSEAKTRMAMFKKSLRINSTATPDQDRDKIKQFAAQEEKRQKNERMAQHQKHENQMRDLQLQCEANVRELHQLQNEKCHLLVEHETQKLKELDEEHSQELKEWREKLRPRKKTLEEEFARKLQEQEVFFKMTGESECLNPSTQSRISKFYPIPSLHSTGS

In the case of `CC(=O)Nc1nc2ccc(-c3cnc(C)c(NC(=O)OC4CCCCC4)c3)cc2s1` [PK68, cyclohexyl (5-(2-acetamidobenzo[d]thiazol-6-yl)-2-methylpyridin-3-yl)carbamate], the Activity% ([1]; 1 μM) is reported as 99.85%, the activity at 1 µM [1] is reported as 101% and the Activity% ([2]; 1 μM) is reported as 90.54%. For the same compound, the activity at 1 µM [2] was 92.5%, the Activity% ([3]; 1 μM) was 96.86% and the activity at 1 µM [3] was 98.1%. The Activity% ([4]; 1 μM) was 74.18%, the activity at 1 µM [4] was 74.3% and the Activity% ([5]; 1 μM) was 91.18%. It also gave an activity at 1 µM [5] of 91.3%, an Activity% ([6]; 1 μM) of 96.80% and an activity at 1 µM [6] of 96.9%. The Activity% ([7]; 1 μM) was 107.97%, the activity at 1 µM [7] was 109% and the Activity% ([8]; 1 μM) was 93.46%. The activity at 1 µM [8] was 95.2%, the Activity% ([9]; 1 μM) was 105.45% and the activity at 1 µM [9] was 107%. The Activity% ([10]; 1 μM) was 100.62%, the activity at 1 µM [10] was 106% and the Activity% ([11]; 1 μM) was 99.34%. The activity at 1 µM [11] was 101%, the Activity% ([12]; 1 μM) was 101.11% and the activity at 1 µM [12] was 104%. It also gave an Activity% ([13]; 1 μM) of 94.67%, an activity at 1 µM [13] of 95.1% and an Activity% ([14]; 1 μM) of 100.31%. For the same compound, the activity at 1 µM [14] was 102%, the Activity% ([15]; 1 μM) was 100.37% and the activity at 1 µM [15] was 101%. For the same compound, the Activity% ([16]; 1 μM) was 91.29%, the activity at 1 µM [16] was 91.9% and the Activity% ([17]; 1 μM) was 93.68%. For the same compound, the activity at 1 µM [17] was 94.6%, the Activity% ([18]; 1 μM) was 90.12% and the activity at 1 µM [18] was 90.5%. For the same compound, the Activity% ([19]; 1 μM) was 97.43%, the activity at 1 µM [19] was 99.7% and the Activity% ([20]; 1 μM) was 99.17%. For the same compound, the activity at 1 µM [20] was 100%, the Activity% ([21]; 1 μM) was 101.85% and the activity at 1 µM [21] was 102%. The Activity% ([22]; 1 μM) was 101.06%, the activity at 1 µM [22] was 102% and the Activity% ([23]; 1 μM) was 99.49%. It also gave an activity at 1 µM [23] of 101%, an Activity% ([24]; 1 μM) of 101.25% and an activity at 1 µM [24] of 102%. The Activity% ([25]; 1 μM) was 94.92%, the activity at 1 µM [25] was 95.2% and the Activity% ([26]; 1 μM) was 88.47%. The activity at 1 µM [26] was 88.6%, the Activity% ([27]; 1 μM) was 96.94% and the activity at 1 µM [27] was 98%. It also gave an Activity% ([28]; 1 μM) of 107.36%, an activity at 1 µM [28] of 109% and an Activity% ([29]; 1 μM) of 95.17%. The activity at 1 µM [29] was 95.5%, the Activity% ([30]; 1 μM) was 98.13% and the activity at 1 µM [30] was 98.9%. It also gave an Activity% ([31]; 1 μM) of 99.02%, an activity at 1 µM [31] of 101% and an Activity% ([32]; 1 μM) of 94.93%. It also gave an activity at 1 µM [32] of 95.2%, an Activity% ([33]; 1 μM) of 105.35% and an activity at 1 µM [33] of 105%.
